In article PMC5321741, “Arylmethylamino steroids as antiparasitic agents” (Nature Communications, 2017):
Where “and” joins values, the source holds several entries; their conditions need not be identical. Equal entries are not always repeated. Where two headings read alike, the source gives them in different places.

How the values were obtained:
[1] = tested on: P. falciparum (strain 3D7); experiment: 72 h 3H-hypoxanthine incorporation assay, asexual blood stages; assay type: cell-based, Plasmodium falciparum
K-562 = experiment: antiproliferative activity on K-562 cells; assay type: cell-based; settings: Homo sapiens, K562, 72 h
Procedure, shortened: (§1)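 K-562 and HeLa seeded at ∼10,000 cells/well; HeLa preincubated 48 h without compound before cytotoxicity testing. 72 h exposure at 37 °C, 5% CO2; K-562 counted by electronic cell analyzer, HUVEC and HeLa glutaraldehyde-fixed, methylene blue-stained, OD 660 nm; GI50 (antiproliferative) and CC50 (cytotoxicity) derived.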

[2] = cytotoxicity on HeLa cells; assay type: cell-based; settings: human, HeLa cells
Procedure, shortened: as §1

[3] = tested on: adult Schistosoma mansoni; experiment: schistosome in vitro culture with inhibitor treatment; assay type: cell-based; settings: for morphological effects (confocal laser scanning microscopy): 5 μM, 6–13 days; for starting concentration with negative influence on worm physiology: pairing stability, egg production, survival, bright-field microscopy
[4] = target: haem (FeIIIPPIX, π-π dimer); experiment: spectrophotometric titration of haematin π-π dimer; assay type: binding; settings: absorption spectrophotometric titration, pH 7.5; read-out: Dissociation Constant KD of haematin-drug complex
haem = experiment: ESI-MS collision-induced dissociation of haem adducts; assay type: binding; settings: 50 µM haem and 50 µM substrate; for DV50 (dissociation voltage at 50%) of haem adduct: ESI-CID, 20 V to 400 V; for Bottom plateau (adduct remaining at 400 V): fragmentor voltage 400 V
Procedure, shortened: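 Equimolar haem and substrate (50 µM each) in H2O/CH3CN 5/95 with 0.1% formic acid, analysed by positive-mode ESI-CID with fragmentor 20–400 V in 20 V steps. DV50 is the voltage giving 50% dissociation of [haematin-drug]+ adducts.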

[5] = tested on: Bacillus subtilis JMRC:STI:10880; experiment: agar diffusion inhibition zone test; assay type: cell-based; settings: 1o, ciprofloxacin 5 µg/ml, solvent DMSO 12P
Experimental: (§2) The following organisms were tested at the Hans Knöll Institute in Jena, for their susceptibility to the compounds 1o and 2o: Bacillus subtilis JMRC:STI:10880, Staphylococcus aureus JMRC:ST:10760, Escherichia coli JMRC:ST:33699, Pseudomonas aeruginosa JMRC:ST:33772, Pseudomonas aeruginosa JMRC:ST:337721, Staphylococcus aureus JMRC:ST:33793 (multi-resistant), Enterococcus faecalis JMRC:ST:33700 (Vancomycin-resistant), Mycobacterium vaccae JMRC:STI:10670, Sporobolomyces salmonicolor (Basidiomycetes yeast) JMRC:ST:35974, Candida albicans (Ascomycetes yeast) JMRC:STI:25000, Penicillium notatum JMRC:STI:50164.
(§3) The bacteria were propagated in Mueller Hinton Broth (Oxoid)[49]. Yeast was propagated in YPD (yeast extract peptone dextrose): 1% yeast extract, 10 g; 2% peptone, 20 g; 2% agar, 20 g; 2% dextrose (glucose), 20 g; Sigma-Y1375. All bacteria and yeast suspensions were freshly made. The cultures were incubated at 37 °C for 16 h. Afterwards, the bacteria concentration from each culture was determined, and 34 ml of nutrient agar was loaded with 10^7 cells. These cultures were stored at 6-8 °C and could be used for seven days for the preparation of test plates. 34 ml of nutrient agar was liquefied and inoculated with the calculated amount of inoculum bacteria suspension at 48–50 °C, a temperature suitable for vegetative forms of bacteria. The inoculated nutrient media (34 ml each) were immediately poured into the prepared test plates (3 mm layer). With a punching device, 12 holes per test plate were punched out. For inhibiting bacterial growth, ciprofloxacin was used as a reference substance. The test substances were dissolved in distilled water, and 5 μg ml^−1 and 50 μl was added to each bacterial culture. For inhibition of fungal growth, amphotericin B served as the reference substance. The test substances were diluted to 10 μg ml^−1 in DMSO/methanol; 50 μl was added to each culture.
(§4) Configuring the test plate; volumes/punched hole: 50 μl; test solutions/test plate: 1 × 50 μl reference substance. Test plates were cultivated for 18 h at 37 °C. Analysis: Reading the inhibition zones (IZ): As IZ, the zone in which no growth can be determined with the naked eye is measured; the tiniest colonies on the edge of the inhibition zone were therefore not taken into consideration. The diameter (φ) of the IZ is measured in mm. The analysis of IZ φ is carried out internationally with the help of statistic procedures, especially regression analysis. With each test approach, the reference substance was brought along as a control; if there were deviations from allowed IZ φ, the test was repeated.
(§5) The inhibition of bacterial growth was determined using bacterial cultures grown in Müller-Hinton Bouillon, which was configured at barely visible opacity with the McFarland Standard Nr. 0.5, which indicates a bacterial density of 10^8 ml^−1. This bacterial suspension was diluted with Müller-Hinton Bouillon using 2-fold dilution series in the agar diffusion test.
(§6) Analysis: The growth in the inhibition zones around the holes containing active substances is thereby compared with the growth in the growth control (no active substance). Bacterial growth was determined according to four measurements: p=presence of colonies in the inhibition zone, P=presence of many colonies in the inhibition zone, A=indication of inhibition, F=facilitation.

[6] = tested on: Enterococcus faecalis JMRC:ST:33700 (Vancomycin-resistant); experiment: agar diffusion inhibition zone test; assay type: cell-based; settings: 1o, ciprofloxacin 5 µg/ml, solvent DMSO 12P
Experimental: as §2, §3, §4, §5, §6

[7] = tested on: Staphylococcus aureus JMRC:ST:10760; experiment: agar diffusion inhibition zone test; assay type: cell-based; settings: 1o, ciprofloxacin 5 µg/ml, solvent DMSO 12P
Experimental: as §2, §3, §4, §5, §6

[8] = pH 7.5
Experimental: Spectrophotometric titration of 1o or 2o by Cu(II) and Fe(III)
Typically, an aliquot of 250 µl (or 500 µl) of a stock solution (~ 0.89 mM) of 1o or 2o was
dissolved in 2.5 (or 2.0 ml) of a mixed solvent made of 0.2 M sodium hepes buffer at pH 7.5
and DMSO (1:1 v/v) in a 1 cm Hellma optical quartz cell. The absorption spectrophotometric
titrations were carried out by adding microvolumes of a stock solution of the metallic cation (5
mM for Cu(II) or 7.36 mM for Fe(III). Aliquots of 5 µl of the stock metal solution were
successively added to the reaction mixture, and after each addition a UV-visible absorption
spectrum (250 nm < λ < 800 nm) was recorded with an Agilent Cary 5000 spectrophotometer. Special care was taken to ensure that equilibrium was attained after
each addition of the substrate. The association constants KL.M (L = 1o, 2o and M = Fe(III) or
Cu(II)) and the stoichiometry of the species at equilibrium were determined by processing the
spectrophotometric data with the Specfit program. The uncertainties on the log K values are given as 3 with  = standard deviation.

[9] = Plasmodium falciparum, 3D7, 72 h 3H-hypoxanthine incorporation, asexual blood stages, read-out: Antiplasmodial activity IC50 Pf (3D7)

SMILES	IC50 [1, 9] [µM]	GI50 (K-562) [µM]	CC50 at 72 h [2] [µM]	morphological effects (confocal laser scanning microscopy) [3]	starting concentration with negative influence on worm physiology [3] [μM]	Kd [4] [µM]	DV50 (dissociation voltage at 50%) of haem adduct (haem) [V]	Bottom plateau (adduct remaining at 400 V) (haem)	stability constants log KLM of 1:1 complexes [8]	further results
COc1ccc2c(c1)CCC1C2CC[C@@]2(C)C1CC[C@@H]2NCc1cc2ccccc2cc1O (stereo partly shown) [2o]	0.0066	2.5	> 113	the diameter of the testicular lobes was reduced, the ovary was disorganized	1	8.3	280	21.7% and ~ 20%	4.1-4.7	effect on survival ([3]; 10 µM): caused the death of the parasites within a week; time to death of worms ([3]; 10 µM): ≤ 3 days; time to death of worms ([3]; 20 µM): 1 days; zone of inhibition ([5]; Bacillus subtilis, read-out: inhibition zone diameter, Bacillus subtilis (B1)): 0 mm; zone of inhibition ([6]; read-out: inhibition zone diameter, VRSA Enteroc. faecalis (R10)): 0 mm; zone of inhibition ([7]; Staphylococcus aureus, read-out: inhibition zone diameter, Staphylococcus aureus (B3)): 0 mm
COc1ccc2c(c1)CCC1C2CC[C@@]2(C)C1CC[C@H]2NCc1cc2ccccc2cc1O (stereo partly shown) [1o]	~0.005	5	> 113	swellings and invaginations occurred at the tegument	5	3.3	290	~ 20% and 20%	4.1-4.7	IC50 ([1]; 72 h 3H-hypoxanthine incorporation, asexual blood stages, read-out: Antiplasmodial activity IC50 Pf (3D7)): 0.0041 µM; IC50 ([1]; Plasmodium falciparum, 3D7, chloroquine-sensitive and resistant P. falciparum parasites, read-out: IC50 against intraerythrocytic stages): 0.001 to 0.005 µM; reduction of egg production and motility ([3]; 10 µM, starting from days 1 and 2): about 75%; effect on survival ([3]; 20 µM, from day 2 on): nearly all worms were dead; inhibition zone diameter, Bacillus subtilis (B1) ([5]; 2o 1,000 µg/ml in DMSO): 0 mm; inhibition zone diameter, VRSA Enteroc. faecalis (R10) ([6]; 2o 1,000 µg/ml in DMSO): 0 mm; inhibition zone diameter, Staphylococcus aureus (B3) ([7]; 2o 1,000 µg/ml in DMSO): 0 mm
